Consider 9 compounds from US20200131144A1, “AMINE OR (THIO)AMIDE CONTAINING LXR MODULATORS” (Phenex-FXR GmbH, priority 2017, published 2020).

Each structure is given as a SMILES string. Like-named read-outs stand apart in the source and are kept apart here.

For series [1], the target named is T1, GST-LXRβ ligand-binding domain (Homo sapiens, UniProt P55055, INS174Q).
T1 construct: amino acids 156-461; NP009052; made in house; host or cells: E. coli
T1 sequence (P55055 with tags, fused parts or gaps INS174Q limits assumed): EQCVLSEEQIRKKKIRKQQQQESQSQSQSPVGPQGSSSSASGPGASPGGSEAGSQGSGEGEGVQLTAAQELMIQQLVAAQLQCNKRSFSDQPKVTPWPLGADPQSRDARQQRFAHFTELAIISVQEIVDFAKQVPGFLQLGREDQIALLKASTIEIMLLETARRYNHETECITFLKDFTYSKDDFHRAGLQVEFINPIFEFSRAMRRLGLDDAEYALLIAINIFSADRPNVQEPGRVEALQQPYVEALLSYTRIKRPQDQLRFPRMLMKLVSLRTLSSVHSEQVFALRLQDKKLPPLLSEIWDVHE
The series is described as follows: TR-FRETβ activity assay (NCoA3 coactivator peptide recruitment). The following applies: 1 μM 24(S)-25-epoxycholesterol as prestimulating agonist; inverse agonist unless *. Type of series: biochemical. An outline of the steps: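 E. coli-expressed GST-LXRβ LBD (aa 156-461, 76 nM) with biotinylated NCoA3 peptide (400 nM), anti-GST-Tb cryptate donor and streptavidin-XL665 acceptor in 240 mM KCl, BSA, 0.002% Triton X-100. Equilibrated 1 h at 4° C; TR-FRET read at 615/665 nm, triplicates.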

Series [2] deals with T2, LXRα ligand-binding domain (LBD) (Homo sapiens, UniProt Q13133).
T2 construct: expressed in transfected cells; host or cells: HEK293
T2 sequence (Q13133 155-447): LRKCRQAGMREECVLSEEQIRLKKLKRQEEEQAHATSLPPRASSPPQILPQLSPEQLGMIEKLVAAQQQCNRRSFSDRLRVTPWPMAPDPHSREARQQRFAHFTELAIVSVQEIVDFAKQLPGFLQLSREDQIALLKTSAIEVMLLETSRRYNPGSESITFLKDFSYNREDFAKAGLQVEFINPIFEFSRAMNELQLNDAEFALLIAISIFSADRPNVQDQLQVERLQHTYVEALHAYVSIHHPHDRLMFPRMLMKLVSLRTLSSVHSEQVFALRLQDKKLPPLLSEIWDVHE
The series can be described thus: LXR Gal4 reporter transient transfection assay, mammalian two-hybrid, LBD-M2H Gal4α. The class given is cell-based. The settings on record: HEK293 cells; inverse agonist unless *. The method, then:
(§1) The tested compounds were usually dissolved, tested and stored as 20 mM stock solutions in DMSO. Since sulfonyl acetic acid derivatives tend to decarboxylate under these conditions, these stock solutions were prepared, tested and stored as 20 mM DMSO stock solutions containing 100 mM trifluoroacetic acid (5 equivalents). Sulfonyl acetic acid derivatives are shelf stable as solid at rt for long time as reported by Griesbrecht et al. (Synlett 2010:374) or Faucher et al. (J. Med. Chem. 2004; 47:18).
(§2) LXR Gal4 Reporter Transient Transfection Assays
(§3) LXRα and LXRβ activity status was determined via detection of interaction with coactivator and corepressor proteins in mammalian two-hybrid experiments (M2H). For this, via transient transfection the full length (FL) proteins of LXRα (amino acids 1-447; NP005684; SEQ ID NO:1) or LXRβ-(amino acids 1-461; NP009052; SEQ ID NO:2) or the ligand-binding domains (LBD) of LXRα (amino acids 155-447 SEQ ID NO:3) or LXR (amino acids 156-461; SEQ ID NO:4) were expressed from pCMV-AD (Stratagene) as fusions to the transcriptional activation domain of NFkB. As cofactors, domains of either the steroid receptor coactivator 1 (SRC1; amino acids 552-887; SEQ ID NO:5) or of the corepressor NCoR (amino acids 1906-2312; NP006302; SEQ ID NO:6) were expressed as fusions to the DNA binding domain of the yeast transcription factor GAL4 (from pCMV-BD; Stratagene). Interaction was monitored via activation of a coexpressed Firefly Luciferase Reporter gene under control of a promoter containing repetitive GAL4 response elements (vector pFRLuc; Stratagene). Transfection efficiency was controlled via cotransfection of constitutively active pRL-CMV Renilla reniformis luciferase reporter (Promega). HEK293 cells were grown in minimum essential medium (MEM) with 2 mM L-glutamine and Earle's balanced salt solution supplemented with 8.3% fetal bovine serum, 0.1 mM non-essential amino acids, 1 mM sodium pyruvate, at 37° C. in 5% CO2. 3.5×10^4 cells/well were plated in 96-well cell culture plates in growth medium supplemented with 8.3% fetal bovine serum for 16-20 h to—90% confluency. For transfection, medium was taken off and LXR and cofactor expressing plasmids as well as the reporter plasmids are added in 30 μL OPTIMEM/well including polyethylene-imine (PEI) as vehicle. Typical amounts of plasmids transfected/well: pCMV-AD-LXR (5 ng), pCMV-BD-cofactor (5 ng), pFR-Luc (100 ng), pRL-CMV (0.5 ng). Compound stocks were prepared in DMSO, prediluted in MEM to a total volume of 120 μL, and added 4 h after addition of the transfection mixture (final vehicle concentration not exceeding 0.2%). Cells were incubated for additional 16 h, lysed for 10 min in 1×Passive Lysis Buffer (Promega) and Firefly and Renilla luciferase activities were measured sequentially in the same cell extract using buffers containing D-luciferine and coelenterazine, respectively. Measurements of luminescence were done in a BMG-luminometer.

In series [3] the target is T3, LXRβ ligand-binding domain (LBD) (Homo sapiens, UniProt P55055, INS174Q).
T3 construct: or LXR (amino acids 156-461); expressed in transfected cells; host or cells: HEK293
T3 sequence (P55055 with tags, fused parts or gaps INS174Q limits assumed): T1 sequence (P55055 with tags, fused parts or gaps INS174Q limits assumed)
The series is described as follows: LXR Gal4 reporter transient transfection assay, mammalian two-hybrid, LBD-M2H Gal4β. The class given is cell-based. The following applies: HEK293 cells; inverse agonist unless *. The method, then:
as §1, §2, §3

Series [4] is described as follows: Pharmacokinetics in mice after single oral dosing, blood and liver exposure by LC-MS. The class given is in vivo, mice (C57/bl6/J). The protocol:
The pharmacokinetics of the compounds was assessed in mice after single dosing and oral administrations. Blood and liver exposure was measured via LC-MS.
The study design was as follows:
Animals: C57/bl6/J (Janvier) males Diet: standard rodent chow Dose: 20 mg/kg Animal handling: animals were withdrawn from food at least 12 h before administration Design: single dose oral administration, n=3 animals per group Sacrifice: at stated time point (4, 12 or 24 h) after administration Bioanalytics: LC-MS of liver and blood samples

Series [5] in a line: Chemical stability of stock solutions and solids. Type of series: physicochemical. The following applies: sodium salt. The method, then: To a solution of compound 7/9 (150 mg, 0.24 mmol) in MeOH (10 mL) and water (10 mL) was added NaOH ([…], 0.48 mmol) at rt. The mixture was stirred at rt overnight and concentrated. The residue was washed with H2O to give compound 14 as a white solid.
as §1

The conditions of series [6]: rat liver microsome; cited from earlier work.
The conditions of series [7]: human liver microsome; cited from earlier work. In general terms: Liver microsomes are vesicles of endoplasmic reticulum, rich in cytochrome P450 enzymes.
Series [8] has as its system T4, LXR.
T4 construct: rows headed: activity on LXR; other: confirmed by applicant; LXRα (amino acids 1-447); NP005684; NP009052
The series can be described thus: Activity on LXR, assay not specified. The settings on record: confirmed by applicant. The source says: The following compounds from this application, in particular, are further described in some publications, mainly from the same group of inventors/authors: SR9238 is described as a liver-selective LXR inverse agonist that suppresses hepatic steatosis upon parenteral administration (Griffett et al., ACS Chem. Biol. 2013; 8:559). […] This compound then has systemic exposure. In addition, it was described, that SR9238 suppresses fibrosis in a model of NASH again after parenteral administration (Griffett et al., Mol. Metab. 2015; 4:35). With a related SR9243 the effects on aerobic glycolysis (Warburg effect) and lipogenesis were described (Flaveny et al., Cancer Cell 2015; 28:42) and the NASH-supressing data obtained with SR9238 was confirmed by Huang et al. (BioMed Res. Int. 2018; 8071093) using SR9243.

Series [9] relates to LXR. The settings on record: literature; cited from earlier work.
Where [10] appears, read: male, C57/bl6/J, mouse, liver/blood, single oral dose 20 mg/kg, time point 4 h, read-out: liver/blood ratio.
Where [11] appears, read: single oral dose 20 mg/kg, time point 4 h.
Where [12] appears, read: single oral dose 20 mg/kg, time point 12 h.
The mark [13] stands for this setting: single oral dose 20 mg/kg, time point 4 h, below LLOQ.

Take `COc1cc(-c2cccc(C(C)(C)C(=O)O)c2)ccc1CN(Cc1ccc(C(F)(F)F)o1)Cc1c(C)ccc2ccccc12` [22/11]: the EC50 was 100 to 1000 nM in series [1], under 100 nM in [2] and under 100 nM in series [3]. The Kp at 4 h in series [4] (setting [10]) is 4.8. In addition, the blood/plasma exposure in series [4] (setting [11]) is 0.57 µM. The compound also registered a liver exposure in series [4] (setting [11]) of 2.75 µM.
As to `Cc1ccc(CN(Cc2ccc(-c3cccc(C(C)(C)C(=O)O)c3)cc2)Cc2ccc(C(F)(F)F)o2)c2ccccc12` [24/1], the concentration giving a half-maximal response (EC50) in series [1], in series [2] and in series [3] was under 100 nM throughout. Moreover, the Kp at 4 h in [4] (setting [10]) amounted to 8. The same compound showed a blood/plasma exposure in series [4] (setting [11]) of 2.25 µM. In addition, in [4] (setting [11]), the liver exposure is 18 µM.
As for `Cc1ccc2ncccc2c1CN(Cc1ccc(-c2cccc(C(C)(C)C(=O)O)c2)cc1)Cc1ccc(C(F)(F)F)o1` [24/3], the values for the EC50 in [1], in series [2] and in series [3] were 100 to 1000 nM, under 100 nM and under 100 nM, respectively. In addition, in series [4] (setting [10]), the Kp at 4 h turned out to be 9.7. In [4] (setting [11]), the blood/plasma exposure was determined as 1.22 µM. The liver exposure in series [4] (setting [11]) is 11.8 µM.
Take `CC(C)(C(=O)O)c1cccc(-c2ccc(CN(Cc3ccc(C(F)(F)F)o3)Cc3c(C#N)ccc4ccccc34)cc2)c1` [27/67]: the EC50 in [1], in series [2] and in series [3] was under 100 nM in each case. Further, the Kp at 4 h in series [4] (setting [10]) was determined as 2.7. Also, in [4] (setting [11]), the blood/plasma exposure turned out to be 4.46 µM. Moreover, the liver exposure in series [4] (setting [11]) was 12.1 µM.
For `Cc1cc(C)c(CN(Cc2ccc(-c3cccc(S(=O)(=O)CC(=O)O)c3)cc2)Cc2ccc(C(F)(F)F)o2)c(C)c1` [Example 1, 2-((4′-((((5-(Trifluoromethyl)furan-2-yl)methyl)(2,4,6-trimethylbenzyl)amino)methyl)-1,1′-biphenyl-3-yl)sulfonyl)acetic acid], the figures for the EC50 in series [1], in series [2] and in [3] were 1000 to 10000 nM, 1000 to 10000 nM and 100 to 1000 nM, respectively. Moreover, the Kp at 4 h in [4] (setting [10]) stood at 51. In addition, the Kp at 12 h in series [4] (male, C57/bl6/J, mouse, liver/blood, single oral dose 20 mg/kg, time point 12 h, read-out: liver/blood ratio) came out at 54. For the same compound, the values for the blood/plasma exposure in series [4] (setting [11]) and in series [4] (setting [12]) were 0.83 µM and 0.06 µM, respectively. The results for the liver exposure in series [4] (setting [11]) and in series [4] (setting [12]) were 42 µM and 3.2 µM, respectively.
`Cc1cc(C)c(C(=O)N(Cc2ccc(-c3cccc(S(=O)(=O)CC(=O)O)c3)cc2)Cc2ccc(C(F)(F)F)o2)c(C)c1` [Example 4, 2-((4′-((2,4,6-Trimethyl-N-((5-(trifluoromethyl)furan-2-yl)methyl)benzamido)methyl)-1,1′-biphenyl-3-yl)sulfonyl)acetic acid]: the EC50 in series [1] is 1000 to 10000 nM; in [2] it was 100 to 1000 nM; in series [3], 100 to 1000 nM. The same compound yielded a liver exposure in series [4] (setting [12]) of 3.45 µM.
As for `COc1cc(-c2ccc(CO)c(C(C)(C)C(=O)[O-])c2)ccc1CN(Cc1ccc(C(F)(F)F)o1)Cc1c(C)ccc2ccccc12.[Na+]` [Example 14], the values for the EC50 in series [1], in series [2] and in series [3] were 1000 to 10000 nM, 1000 to 10000 nM and under 100 nM, respectively. Moreover, in [5], the stability upon standing entry is reported as “tends to cyclisize back to lacton 7/9 upon standing”.
Consider `Cc1cc(C)c(S(=O)(=O)N(Cc2ccc(-c3cccc(S(C)(=O)=O)c3)cc2)Cc2ccc(C(F)(F)F)o2)c(C)c1` [GSK2033, reference compound], for which the oral bioavailability entry in series [4] (single dose oral administration, 20 mg/kg) is “not orally bioavailable and hepatoselective”. Moreover, in [4] (setting [13]), the blood/plasma exposure entry is “(14.4 ng/mL)” and the liver exposure result is “(9.6 ng/mL)”. In addition, the “clearance ClInt” value in series [6] is over 1.0 mL/min/mg prot. Moreover, in series [7], the “clearance ClInt” value is listed as over 1.0 mL/min/mg prot.
Take `Cc1cc(C)c(S(=O)(=O)N(Cc2ccc(-c3cccc(S(C)(=O)=O)c3)cc2)Cc2ccc(C(=O)O)o2)c(C)c1` [SR10389]: the “activity on LXR” value with LXR [8] is “inactive on LXR”. The LXR activity entry in the series on LXR [9] is “LXR inactive”.

The EC50 is the concentration giving half of the maximal effect. Higher therefore signals a less potent agent.
